According to patent US20060264347A1, “Antimicrobial composition” (priority 2005, published 2006):

Experiments:
[1] = animals and humans; cited from earlier work
C. albicans = test: Zone of inhibition assay of coated sutures; assay type: cell-based; settings: coated 2-0 polyglactin 910 suture, 37° C. 48 hr
Protocol: (§1) A series of USP standard size 2-0 uncoated polyglactin 910 sutures were coated with coating compositions containing LAE. LAE stock solution was made in ethanol at the concentration of 10%. The coating solutions were made by dissolving a L(−)lactide/glycolide copolymer containing 65 mole % lactide and 35 mole % glycolide (4.5%) and calcium stearate (4.5%) in ethyl acetate. Then, the LAE stock solution was added to the coating solution at sequential concentrations and mixed thoroughly. The sutures were hand coated by dipping into the coating solution containing antimicrobial composition and then air dried at room temperature for 8 hr. The antimicrobial efficacy was evaluated by zone of inhibition assay, in which the sutures were cut into a 5 cm section and inoculated with about 10^5 cfu/suture in a Petri dish, a portion of 20 ml of TSA tempered at 47° C. was added into the Petri dish. The inoculum was mix thoroughly with the medium and the suture was placed in the middle of the plate. The inoculated plates were incubated at 37° C. for 48 hr and then the zone of inhibition was measured with a digital caliper.
as §1, with “DIMPTS. DIMPTS” for “LAE. LAE”, “DIMPTS” for “LAE”

E. coli [2] = test: Zone of inhibition assay of coated sutures; assay type: cell-based; settings: coated 2-0 polyglactin 910 suture, 37° C. 48 hr
Protocol: as §1
as §1, with “DIMPTS. DIMPTS” for “LAE. LAE”, “DIMPTS” for “LAE”
(§2) A series of USP standard size 2-0 uncoated polyglactin 910 sutures were coated with coating compositions containing the combinations of LAE and DIMPTS. DIMPTS and LAE stock solutions were made in ethanol at concentration of 10%. The coating solutions were made by dissolving a L(−)lactide/glycolide copolymer containing 65 mole % lactide and 35 mole % glycolide (4.5%) and calcium stearate (4.5%) in ethyl acetate. Then, the DIMPTS and LAE stock solutions were added to the coating solution at sequential concentrations and mixed thoroughly. The sutures were hand coated by dipping into the coating solution containing antimicrobial composition and then air dried at room temperature for 8 hr. The antimicrobial efficacy and synergistic effect were evaluated by zone of inhibition assay, in which the sutures were cut into a 5 cm section and inoculated with about 10^5 cfu/suture in a Petri dish, a portion of 20 ml of TSA tempered at 47° C. was added into the Petri dish. The inoculum was mix thoroughly with the medium and the suture was placed in the middle of the plate. The inoculated plates were incubated at 37° C. for 48 hr and then the zone of inhibition was measured with a digital caliper.

S. aureus [3] = test: Zone of inhibition assay of coated sutures; assay type: cell-based; settings: coated 2-0 polyglactin 910 suture, 37° C. 48 hr
Protocol: as §1
A series of USP standard size 2-0 uncoated polyglactin 910 sutures were coated with coating compositions containing DIMPTS. DIMPTS stock solution was made in ethanol at the concentration of 10%. The coating solutions were made by dissolving a L(−)lactide/glycolide copolymer containing 65 mole % lactide and 35 mole % glycolide (4.5%) and calcium stearate (4.5%) in ethyl acetate. Then, the DIMPTS stock solution was added to the coating solution at sequential concentrations and mixed thoroughly. The sutures were hand coated by dipping into the coating solution containing antimicrobial composition and then air dried at room temperature for 8 hr. The antimicrobial efficacy was evaluated by zone of inhibition assay, in which the sutures were cut into a 5 cm section and inoculated with about 10^5 cfu/suture in a Petri dish, a portion of 20 ml of TSA tempered at 47° C. was added into the Petri dish. The inoculum was mix thoroughly with the medium and the suture was placed in the middle of the plate. The inoculated plates were incubated at 37° C. for 48 hr and then the zone of inhibition was measured with a digital caliper.
as §2

[4] = rats; cited from earlier work
E. coli [5] = test: In vitro antimicrobial efficacy, viable plate count after 24 hr culture; assay type: cell-based; settings: 37° C. 24 hr, inoculum 10^6 CFU/ml
Protocol: (§3) The synergistic antimicrobial efficacy of the LAE and diiodomethyl-p-tolylsulfone ([…]) antimicrobial composition is illustrated by the results shown in Tables 1 and 2, and was determined by the following protocol. […] Sequential dilutions of the above two stock solutions were then prepared in sterile saline. […] Controls contained similar amounts of saline in the test culture with no LAE or […]. The test cultures were incubated at 37° C. for 24 hr, the total viable bacteria were numerated by plate count on Trypticase® soy agar (BBL) containing inactivating agent. The plates were incubated at 37° C. for 48 hr and reported as colony forming unit/ml (CFU/ml).

E. faecium = test: as above; assay type: cell-based; settings: 37° C. 24 hr, inoculum 10^6 CFU/ml
Protocol: as §3

C. albican = test: as above; assay type: cell-based; settings: 37° C. 24 hr, inoculum 10^6 CFU/ml
Protocol: as §3

S. aureus [6] = test: as above; assay type: cell-based; settings: 37° C. 24 hr, inoculum 10^6 CFU/ml
Protocol: as §3

P. aeruginosa = test: as above; assay type: cell-based; settings: 37° C. 24 hr, inoculum 10^6 CFU/ml
Protocol: as §3

CCCCCCCCCCCC(=O)N[C@@H](CCCN=C(N)N)C(=O)OCC.Cl [LAE, ethyl ester of the lauramide of the arginine monohydrochloride]
toxicity [1]: completely harmless | Zone of inhibition (mm) (C. albicans; 0.5% in coating solution): 0 mm | Zone of inhibition (mm) (C. albicans; 1% in coating solution): 2.3 mm | Zone of inhibition (mm) (C. albicans; 2% in coating solution): 3.5 mm | Zone of inhibition (mm) (E. coli [2]; 0.5% in coating solution): 0 mm | Zone of inhibition (mm) (E. coli [2]; 1% in coating solution): 1.0 mm | Zone of inhibition (mm) (E. coli [2]; 2% in coating solution): 2.0 mm | Zone of inhibition (mm) (S. aureus [3]; 0.5% in coating solution): 0 mm | Zone of inhibition (mm) (S. aureus [3]; 1% in coating solution): 1.5 mm | Zone of inhibition (mm) (S. aureus [3]; 2% in coating solution): 3.2 mm | absorption and metabolism [4]: fast absorption and metabolism into naturally-occurring amino acids and the lauric acid | CFU/ml (E. coli [5]; 10 ppm): 1.1 × 10^9 CFU/ml | CFU/ml (E. faecium; 10 ppm): 5 × 10^7 CFU/ml | CFU/ml (C. albican; 10 ppm): 6 × 10^7 CFU/ml | CFU/ml (S. aureus [6]; 10 ppm): 1.1 × 10^9 CFU/ml | CFU/ml (P. aeruginosa; 10 ppm): 1.2 × 10^9 CFU/ml

Cc1ccc(S(=O)(=O)C(I)I)cc1 [DIMPTS, diiodomethyl-p-tolylsulfone]
Zone of inhibition (mm) (C. albicans; 0.1% in coating solution): 3.3 mm | Zone of inhibition (mm) (C. albicans; 0.5% in coating solution): 3.6 mm | Zone of inhibition (mm) (C. albicans; 1% in coating solution): 8.4 mm | Zone of inhibition (mm) (E. coli [2]; 0.1% in coating solution): 0 mm | Zone of inhibition (mm) (E. coli [2]; 0.5% in coating solution): 0 mm | Zone of inhibition (mm) (E. coli [2]; 1% in coating solution): 1.0 mm | Zone of inhibition (mm) (S. aureus [3]; 0.1% in coating solution): 0 mm | Zone of inhibition (mm) (S. aureus [3]; 0.5% in coating solution): 3.0 mm | Zone of inhibition (mm) (S. aureus [3]; 1% in coating solution): 4.3 mm | CFU/ml (E. coli [5]; 10 ppm): 1.4 × 10^9 CFU/ml | CFU/ml (E. coli [5]; 200 ppm): 1.1 × 10^5 CFU/ml | CFU/ml (E. faecium; 0.5 ppm): 6 × 10^8 CFU/ml | CFU/ml (E. faecium; 5 ppm): 3 × 10^8 CFU/ml | CFU/ml (C. albican; 0.5 ppm): 1 × 10^8 CFU/ml | CFU/ml (S. aureus [6]; 0.5 ppm): 1.2 × 10^9 CFU/ml | CFU/ml (S. aureus [6]; 5 ppm): 2.4 × 10^6 CFU/ml | CFU/ml (P. aeruginosa; 10 ppm): 1.0 × 10^9 CFU/ml | CFU/ml (P. aeruginosa; 200 ppm): 4 × 10^8 CFU/ml
